The numbers were not newly measured in US20060252698A1, “Compounds for inhibiting cathepsin activity” (priority 2005, published 2006), which cites them from elsewhere.

The test system of this data set is melanoma A375 tumors. The conditions noted are these: melanoma A375 tumors implanted into the left ventricle of the heart; cited from earlier work.

As for `CN(C)C(=O)[C@H](Cc1ccccc1)NC(=O)[C@H]1O[C@@H]1C(=O)NCCc1ccccn1` [CLIK-148], the “distant bone metastasis to the femur and tibia” value is on record as “reduced distant bone metastasis”.
